Tested on: 292921-168-R-J2-PDC KRAS tumor spheroid viability
Test: Anticancer human tumor 292921-168-R-J2-PDC patient-derived pancreatic carcinoma cell line growth inhibition [KRAS2]
Conditions: spheroids with HUVEC and MSC; for IC50: curve of first compound; for viability, T/C: stronger effect = lower value
From the text: Multicellular complex tumor spheroid response to RAS pathway inhibitors in combination with a targeted agents in patient-derived cell lines with oncogenic KRAS variants from multiple cancer types
A high-throughput screen of multi-cell type tumor spheroids was designed to identify active combinations of targeted small molecules and KRAS pathway inhibitors. Complex spheroids include a stromal component modeled by human endothelial cells (HUVEC) and fibroblasts modeled by human mesenchymal stem cells (MSCs). The concentration ranges selected for each drug and investigational agent were based upon clinically achievable concentrations if the clinical Cmax of the agent was known.
Compounds. The drugs and investigational agents: BI-3406 (NSC825286), BAY-293 (NSC824723), batoprotafib (TNO155; NSC825523), sotorasib (AMG 510; NSC818433), MRTX1257 (NSC819558), elimusertib (BAY 1895344; NSC800525), molibresib (GSK525762; NSC774829), temuterkib (LY3214996; NSC803410), venetoclax (NSC766270), alisertib (NSC759677), olaparib (NSC753686), talazoparib (NSC767125), erdafitinib (NSC781556), ipatasertib (NSC767898), cabozantinib (NSC761068), nintedanib (NSC756659), abemaciclib (NSC768073), docetaxel (NSC628503), trametinib (NSC758246), and sapanisertib (NSC764658) were obtained from the National Cancer Institute (NCI) Developmental Therapeutics Program Chemical Repository. The FDA-approved anticancer drug set is available from the Developmental Therapeutics Program. […] The stock solutions were prepared in dimethyl sulfoxide (DMSO, Sigma-Aldrich, St. Louis, MO, cat. D2650) at 800-fold the tested concentration and stored at -70 degrees C prior to their use. All drugs and investigational agents were tested over a range starting from a high concentration at or near the clinical Cmax and decreasing in half-log increments. If the clinical Cmax for an agent had not been determined, the highest concentration tested was 10 microM.
Cell Culture. All cells were maintained in an incubator at 37 degrees C and 5% CO2 with 95% humidity. The PDC lines were cultured according to standard operating procedures established by the NCI PDMR (https://pdmr.cancer.gov/sops/default.htm). Briefly, all PDCs were thawed and cultured in Matrigel-coated flasks prepared with a working solution of 1X Ham's F-12 nutrient mix, without supplementation (Invitrogen, Waltham, MA, cat. 11765054), 100 U/mL penicillin-streptomycin (Invitrogen, cat. 15140122), and 2.5% Matrigel (Corning Inc., Corning, NY, cat. 354248) for the first three passages. All PDCs were cultured in complete DMEM/F-12 media containing advanced DMEM/F-12 (Invitrogen, cat. 12634028), 4.9% defined fetal bovine serum, heat inactivated (HyClone Laboratories Inc., Logan, UT, cat. SH30070.03HI), 389 ng/mL hydrocortisone (Sigma-Aldrich, cat. H4001), 9.7 ng/mL human EGF recombinant protein (Invitrogen, cat. PHG0313), 23.4 microg/mL adenine (Sigma-Aldrich, cat. A2786), 97.3 U/mL penicillin-streptomycin (Invitrogen, cat. 15140122), 1.9 mM L-glutamine (Invitrogen, cat. 25030081), and 9.7 microM Y-27632 dihydrochloride (Tocris Bioscience, Bristol, United Kingdom, cat. 1254). The PDCs were cultured in complete DMEM/F12 media without 9.7 microM Y-27632 dihydrochloride for at least two passages prior to the screen. The established cell line HOP-62 was cultured in RPMI 1640 medium, HEPES (Invitrogen, cat. 22400105) with 10% defined fetal bovine serum (HyClone Laboratories Inc., cat. SH30070.03) and 2 mM L-glutamine (Invitrogen, cat. 25030081). The pooled donor HUVEC were cultured in endothelial cell growth medium 2 (PromoCell, Heidelberg, Germany, cat. C-22011) and the hMSC were cultured in mesenchymal stem cell growth medium 2 (PromoCell, cat. C-28009). For all experiments, HUVEC and hMSC were used at passages </=5, while the malignant cell lines were used at passages </=15. […]
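Also: drug exposure lasted seven days after spheroids formed for three days.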
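For viability, T/C in this document: percent of DMSO vehicle control viability which is 100%.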

CC(C)n1nc(-c2ccc3oc(N)nc3c2)c2c(N)ncnc21 + CC1OCC2(CCN(c3cnc(Sc4ccnc(N)c4Cl)c(N)n3)CC2)C1N
IC50 (second compound 0.1 µM): 1.06 nM
IC50 (second compound 0.316 µM): < 0.316 nM
IC50 (second compound 1 µM): < 0.316 nM
IC50 (second compound 3.16 µM): < 0.316 nM
IC50 (second compound 10 µM): < 0.316 nM
viability, T/C (second compound 0.1 µM, first compound 0.000316 µM): 66.5%
viability, T/C (second compound 0.1 µM, first compound 0.001 µM): 51.4%
viability, T/C (second compound 0.1 µM, first compound 0.00316 µM): 35.4%
viability, T/C (second compound 0.1 µM, first compound 0.01 µM): 29.4%
viability, T/C (second compound 0.1 µM, first compound 0.0316 µM): 20.8%
viability, T/C (second compound 0.1 µM, first compound 0.1 µM): 19.1%
viability, T/C (second compound 0.316 µM, first compound 0.000316 µM): 48.7%
viability, T/C (second compound 0.316 µM, first compound 0.001 µM): 38.5%
viability, T/C (second compound 0.316 µM, first compound 0.00316 µM): 30.5%
viability, T/C (second compound 0.316 µM, first compound 0.01 µM): 21.6%
viability, T/C (second compound 0.316 µM, first compound 0.0316 µM): 18.4%
viability, T/C (second compound 0.316 µM, first compound 0.1 µM): 16.6%
viability, T/C (second compound 1 µM, first compound 0.000316 µM): 44%
viability, T/C (second compound 1 µM, first compound 0.001 µM): 36.4%
viability, T/C (second compound 1 µM, first compound 0.00316 µM): 26.1%
viability, T/C (second compound 1 µM, first compound 0.01 µM): 19.3%
viability, T/C (second compound 1 µM, first compound 0.0316 µM): 17.4%
viability, T/C (second compound 1 µM, first compound 0.1 µM): 14.5%
viability, T/C (second compound 3.16 µM, first compound 0.000316 µM): 32.3%
viability, T/C (second compound 3.16 µM, first compound 0.001 µM): 28.3%
viability, T/C (second compound 3.16 µM, first compound 0.00316 µM): 23.7%
viability, T/C (second compound 3.16 µM, first compound 0.01 µM): 16.6%
viability, T/C (second compound 3.16 µM, first compound 0.0316 µM): 14.9%
viability, T/C (second compound 3.16 µM, first compound 0.1 µM): 12.5%
viability, T/C (second compound 10 µM, first compound 0.000316 µM): 27.2%
viability, T/C (second compound 10 µM, first compound 0.001 µM): 27.8%
viability, T/C (second compound 10 µM, first compound 0.00316 µM): 20.1%
viability, T/C (second compound 10 µM, first compound 0.01 µM): 17%
viability, T/C (second compound 10 µM, first compound 0.0316 µM): 12.8%
viability, T/C (second compound 10 µM, first compound 0.1 µM): 11.3%
